These results are taken from US11225460B2, “Pyrrolidineamide derivatives and uses thereof” (SUNSHINE LAKE PHARMA CO., LTD., priority 2019, dated 2022).

In data set [1] the target is T1, Human recombinant monoamine oxidase B (Homo sapiens, UniProt P27338).
T1 construct: host or cells: Sf9 cells
T1 sequence (P27338 1-520): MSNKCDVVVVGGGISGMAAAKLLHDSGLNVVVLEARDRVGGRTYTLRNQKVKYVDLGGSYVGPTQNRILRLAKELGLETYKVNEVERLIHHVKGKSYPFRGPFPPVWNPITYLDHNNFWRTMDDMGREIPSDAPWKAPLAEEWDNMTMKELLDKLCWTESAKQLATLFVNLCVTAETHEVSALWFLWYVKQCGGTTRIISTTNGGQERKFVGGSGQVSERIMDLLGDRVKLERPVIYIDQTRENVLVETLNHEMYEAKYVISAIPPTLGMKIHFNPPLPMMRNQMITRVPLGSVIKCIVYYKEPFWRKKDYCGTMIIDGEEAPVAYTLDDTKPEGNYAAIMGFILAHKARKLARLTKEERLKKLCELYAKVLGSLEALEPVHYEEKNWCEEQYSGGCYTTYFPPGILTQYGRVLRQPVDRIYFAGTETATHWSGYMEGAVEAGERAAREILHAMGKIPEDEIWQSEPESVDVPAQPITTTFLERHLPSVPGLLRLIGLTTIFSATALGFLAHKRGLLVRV
Briefly: Inhibitory effect on the activity of monoamine oxidase B. It counts as biochemical. Particulars: human recombinant MAO-B, substrate benzylamine hydrochloride. As for the experimental part:
Human recombinant monoamine oxidase B expressed in Sf9 cells was used in the test system. In the experiment, firstly, the recombinant monoamine oxidase B was dissolved in the pre-configured HEPES buffer (0.8% NaCl, 0.037% KCl, 0.0135% Na2HPO4.2H2O, 0.1% Glucan, 0.5% HEPES, pH=7.0) at a concentration of 0.3 μg/μL. To each well of a 384-well plate was added 10 μL of monoamine oxidase B solution, and the test compound with different concentrations (the final concentration of DMSO was 1%) (10 gradient concentrations were 10 mM, 1 mM, 100 μM, 10 μM, 1 μM, 100 nM, 10 nM, 1 nM, 0.1 nM, 0.01 nM) were added into the wells respectively. The standard reference compound was R-(−)-Deprenyl, the plate was incubated at room temperature for 15 min. Then, each well filled with 10 μL substrate solution (Benzylamine hydrochloride, 1 mM) was incubated at room temperature for 60 min. Then 20 μL of fluorescein detection reagent was added to each well, which was fully blended and incubated at room temperature for 20 minutes to produce stable fluorescence signal. The fluorescence signal was read by fluorescein labeling instrument, and the value was expressed by relative light intensity (RLU). The inhibitory rate on enzyme activity was calculated according to the experimental results, the calculated formula: Inh %=(Max−Signal)/(Max−Min)*100, wherein Max was the detected value at the maximum concentration of the sample, Min was the detected value at the minimum concentration of the sample, and Signal was the detected value at the current concentration of the sample.
(§1) The standard curve was obtained through the series concentration by experimental test to calculate the IC50.

Data set [2] concerns the target T2, Human recombinant monoamine oxidase A (Homo sapiens, UniProt P21397).
T2 construct: host or cells: Sf9 cells
T2 sequence (P21397 1-527): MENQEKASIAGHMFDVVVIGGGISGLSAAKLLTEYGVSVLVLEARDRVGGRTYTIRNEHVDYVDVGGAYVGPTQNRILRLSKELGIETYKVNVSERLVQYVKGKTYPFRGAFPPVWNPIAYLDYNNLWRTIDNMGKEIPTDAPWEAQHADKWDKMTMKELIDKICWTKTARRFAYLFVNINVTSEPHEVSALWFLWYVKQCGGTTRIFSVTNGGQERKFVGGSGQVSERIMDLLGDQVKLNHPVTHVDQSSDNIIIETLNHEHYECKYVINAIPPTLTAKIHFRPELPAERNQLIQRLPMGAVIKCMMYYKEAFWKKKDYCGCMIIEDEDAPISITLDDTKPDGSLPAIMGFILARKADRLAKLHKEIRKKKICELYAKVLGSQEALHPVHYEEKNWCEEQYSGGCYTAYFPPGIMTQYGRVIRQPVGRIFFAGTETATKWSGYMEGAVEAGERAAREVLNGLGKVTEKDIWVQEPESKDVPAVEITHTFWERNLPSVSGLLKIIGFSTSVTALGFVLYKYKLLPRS
Briefly: Inhibitory effect on the activity of monoamine oxidase A. It counts as biochemical. The note with it: human recombinant MAO-A, substrate p-tyramine hydrochloride. As for the experimental part: Human recombinant monoamine oxidase A expressed in Sf9 cells was used in the test system. In the experiment, firstly, the recombinant monoamine oxidase A was dissolved in the pre-configured HEPES buffer (0.8% NaCl, 0.037% KCl, 0.0135% Na2HPO4.2H2O, 0.1% Glucan, 0.5% HEPES, pH=7.0) at a concentration of 0.3 μg/μL. To each well of a 384-well plate was added 10 μL of monoamine oxidase A solution, and the test compound with different concentrations (the final concentration of DMSO was 1%) (10 gradient concentrations were 10 mM, 1 mM, 100 μM, 10 μM, 1 μM, 100 nM, 10 nM, 1 nM, 0.1 nM, 0.01 nM) were added into the wells, respectively. The standard reference compound was Clorgyline, the plate was incubated at room temperature for 15 min. Then, each well filled with […] (p-Tyramine hydrochloride, 1 mM) was incubated at room temperature for 60 min. Then 20 μL of fluorescein detection reagent was added to each well, which was fully blended and incubated at room temperature for 20 minutes to produce stable fluorescence signal. The fluorescence signal was read by fluorescein labeling instrument, and the value was expressed by relative light intensity (RLU). The inhibitory rate on enzyme activity was calculated according to the experimental results, the calculated formula: Inh %=(Max−Signal)/(Max−Min)*100, wherein Max was the detected value at the maximum concentration of the sample, Min was the detected value at the minimum concentration of the sample, and Signal was the detected value at the current concentration of the sample.
as §1

Data set [3] is described as follows: Pharmacokinetic evaluation after intravenous or gavage administration in rats. The class given is in vivo, SD rats. As for the experimental part:
The LC-MS/MS system comprises Agilent 1200 series vacuum degassing furnace, quaternary pumps, well-plate autosampler, thermostatted column compartment, the API4000Qtrap Triple Quadrupole Mass Spectrometer with an electrospray ionization (ESI) source. Quantitative analysis was carried out using MRM mode. The parameters for MRM transitions are in Table 2.
Analysis was carried out on waters xbridge C18 (2.1×50 mm, […] column, 0.5 μL of sample), the analytic conditions are mobile phases cosisting of water+2 mM ammonium formate+0.1% formic acid (Phase A) and methanol+2 mM ammonium formate+0.1% formic acid (Phase B). The flow rate was 0.4 mL/min. And the gradient of Mobile phase was in Table 3.
Each animal species was divided into two groups: one was administered intravenously and the other was administered intragastrically. The compounds disclosed herein were administered in form of a solution containing 5% DMSO+5% Kolliphor HS15+90% Saline. For the group of intravenous administration, the administration dose was 1 mg/kg, and vein blood samples (0.3 ml) were collected at the time points of 0.083, 0.25, 0.5, 1.0, 2.0, 4.0, 6.0, 8.0 and 24 h after drug administration, then plasma solutions were collected by centrifuging each blood sample at 3000 rpm or 4000 rpm for 10 minutes and kept at −20° C. or −70° C. For the group of intragastric administration, the administration dose was 5 mg/kg, and vein blood samples (0.3 mL) were collected at the time points of 0.25, 0.5, 1.0, 2.0, 4.0, 6.0, 8.0 and 24 h after drug administration, then plasma solutions were collected by centrifuging each blood sample at 3000 rpm or 4000 rpm for 10 minutes and kept at −20° C. or −70° C.
20 μL of plasma was blended with 120 μl, 50 ng/ml propranolol standard water solution, then the mixture was extracted with 1.0 mL methyl tert-butyl ether (MTBE), 0.7 mL of supernatant was dried by blow with nitrogen and then dissolved again with 220 μL methanol water (methanol/water (v/v)=1/1). LC-MS/MS method was used to detect the concentration of the target compounds, and […] was used to calculate the pharmacokinetic parameters.

[4] abbreviates: SD, rat, plasma, iv, i.v group, 1 mg/kg.
Setting [5] is: SD, rat, plasma, po, i.g group, 5 mg/kg.

For orientation: IC50 means the concentration that inhibits the measured activity by half. A word on the AUC(0-inf): it is total exposure, with the tail of the curve extrapolated. The term AUC(0-t) denotes the area under the concentration-time curve up to a stated or last time point. A low value points to low exposure. In general, Cmax refers to the peak of the concentration-time curve. Usually MRT inf stands for a mean duration of stay, worked out from the concentration-time curve. What is called Tmax is the time at which the peak concentration occurs. In general, half-life refers to the time in which the quantity being followed falls by half. A low value points to fast loss.

On to `C[C@H]1C[C@@H](C(N)=O)N(Cc2ccc(OCc3cccc(F)c3)cc2F)C1` [Example 15, (2S,4S)-1-(2-fluoro-4-(3-fluorobenzyloxy)benzyl)-4-methylpyrrolidine-2-formamide], for which the IC50 in data set [1] was 130 nM; in data set [2], 29000 nM.

Take `NC(=O)[C@@H]1CC(F)(F)CN1Cc1ccc(OCc2cccc(F)c2)cc1` [Example 10, (S)-4,4-difluoro-1-(4-(3-fluorobenzyloxy)benzyl)pyrrolidine-2-formamide]: the IC50 in data set [1] was found to be 1100 nM.

With `NC(=O)[C@@H]1CC(F)(F)CN1Cc1ccc(OCc2cccc(F)c2)cc1F` [Example 11, (S)-4,4-difluoro-1-(2-fluoro-4-(3-fluorobenzyloxy)benzyl) pyrrolidine-2-formamide], in data set [1], the IC50 amounted to 2200 nM.

Turning to `CC1(C)C[C@@H](C(N)=O)N(Cc2ccc(OCc3cccc(F)c3)cc2)C1` [Example 8, (S)-1-(4-(3-fluorobenzyloxy)benzyl)-4,4-dimethylpyrrolidine-2-formamide], the IC50 in data set [1] came to 1400 nM.

With `NC(=O)[C@@H]1C[C@@H](F)CN1Cc1ccc(OCc2cccc(F)c2)cc1` [Example 12, (2S,4R)-4-fluoro-1-(4-(3-fluorobenzyloxy)benzyl)pyrrolidine-2-formamide], the IC50 in data set [1] was 720 nM. In data set [3] (setting [4]), this compound registered an AUC(0-inf) of 453 ng·h/mL, an AUC(0-t) of 452 ng·h/mL, a Cmax of 661 ng/mL and a mean residence time (MRT inf) of 40 min. In addition, in data set [3] (setting [4]), the Tmax came out at 4.98 min, the clearance is 36.8 mL/min/kg and the half-life is 37 min. In addition, in data set [3] (setting [5]), the AUC(0-inf) came out at 1830 ng·h/mL, the AUC(0-t) came out at 1820 ng·h/mL, the Cmax was 1010 ng/mL and the MRT inf stood at 78.6 min. In data set [3] (setting [5]), the Tmax worked out at 20 min and the half-life is 39.1 min. Further, in data set [3] (i.g group, 5 mg/kg), the F turned out to be 80.7%.

Turning to `C[C@H]1C[C@@H](C(N)=O)N(Cc2ccc(OCc3cccc(F)c3)cc2)C1` [Example 14, (2S,4S)-1-(4-(3-fluorobenzyloxy)benzyl)-4-methylpyrrolidine-2-formamide], the IC50 in data set [1] is 83 nM; in data set [2] it was 27000 nM.
